Measured values taken from PubChem BioAssay (NCI).
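Tested at 5 concentrations; 48 h exposure; 96-well plates; endpoints linearly interpolated, else capped at highest concentration. TGI marks complete inhibition of growth.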

Columns and labels:
Experiment in all cases: growth of human tumour cells (NCI), 48 h
[1] = system: 786-0 renal
[2] = system: A498 renal
[3] = system: A549 NSCLC
[4] = system: ACHN renal
[5] = system: BT-549 breast
[6] = system: CAKI-1 renal
[7] = system: COLO 205 colon
[8] = system: DU-145 prostate
[9] = system: EKVX NSCLC
[10] = system: HCC-2998 colon
[11] = system: HCT-116 colon
[12] = system: HCT-15 colon
[13] = system: HL-60(TB) leukemia
[14] = system: HOP-62 NSCLC
[15] = system: HOP-92 NSCLC
[16] = system: HS 578T breast
[17] = system: HT29 colon
[18] = system: IGROV1 ovarian
[19] = system: K-562 leukemia
[20] = system: KM12 colon
[21] = system: LOX IMVI melanoma
[22] = system: M14 melanoma
[23] = system: MALME-3M melanoma
[24] = system: MCF7 breast
[25] = system: MDA-MB-231 breast
[26] = system: MDA-MB-435
[27] = system: MDA-N
[28] = system: NCI-H226 lung
[29] = system: NCI-H23 lung
[30] = system: NCI-H460 lung
[31] = system: NCI-H522 lung
[32] = system: NCI/ADR-RES ovarian
[33] = system: OVCAR-3 ovarian
[34] = system: OVCAR-4 ovarian
[35] = system: OVCAR-5 ovarian
[36] = system: OVCAR-8 ovarian
[37] = system: PC-3 prostate
[38] = system: RPMI-8226 leukemia
[39] = system: SF-268 CNS
[40] = system: SF-295 CNS
[41] = system: SK-MEL-2 melanoma
[42] = system: SK-MEL-28 melanoma
[43] = system: SK-MEL-5 melanoma
[44] = system: SK-OV-3 ovarian
[45] = system: SN12C renal
[46] = system: SNB-19 CNS
[47] = system: SNB-75 CNS
[48] = system: T-47D breast
[49] = system: TK-10 renal
[50] = system: U251 CNS
[51] = system: UACC-257 melanoma
[52] = system: UACC-62 melanoma
[53] = system: UO-31 renal
[54] = system: CCRF-CEM leukemia
[55] = system: MOLT-4 leukemia
[56] = system: RXF 393 renal
[57] = system: SF-539 CNS
[58] = system: SW-620 colon

Q: How did the TGI [1] turn out when `COc1ccc2c(c1)c(=O)c1c(NCCN(C)C)ccc3c(=O)n(CCN(C)C)c(=O)n2c31` was run?
A: Its TGI is 0.87 µM.

Q: And the TGI [2]?
A: Its TGI is 1.35 µM.

Q: And the TGI [3]?
A: The TGI was 10.2 µM.

Q: What about the TGI [4] of the same compound?
A: The TGI was 3.85 µM.

Q: And the TGI [5]?
A: The TGI was 3.22 µM.

Q: And the TGI [6]?
A: The TGI was 0.599 µM.

Q: What about the TGI [7] of the same compound?
A: The TGI was 0.247 µM.

Q: And the TGI [8]?
A: Its TGI is 1.23 µM.

Q: And the TGI [9]?
A: Its TGI is 1.31 µM.

Q: And the TGI [10]?
A: Its TGI is 0.569 µM.

Q: And the TGI [11]?
A: Its TGI is 1.06 µM.

Q: What about the TGI [12] of the same compound?
A: Its TGI is 2.62 µM.

Q: And the TGI [13]?
A: The TGI was 0.569 µM.

Q: What about the TGI [14] of the same compound?
A: Its TGI is 1.78 µM.

Q: What about the TGI [15] of the same compound?
A: Its TGI is 0.791 µM.

Q: What about the TGI [16] of the same compound?
A: The TGI was 0.841 µM.

Q: What about the TGI [17] of the same compound?
A: The TGI was 1.39 µM.

Q: And the TGI [18]?
A: Its TGI is 1.2 µM.

Q: What about the TGI [19] of the same compound?
A: The TGI was 0.0354 µM.

Q: And the TGI [20]?
A: The TGI was 0.659 µM.

Q: And the TGI [21]?
A: The TGI was 1.22 µM.

Q: What about the TGI [22] of the same compound?
A: Its TGI is 0.835 µM.

Q: What about the TGI [23] of the same compound?
A: Its TGI is 1.02 µM.

Q: And the TGI [24]?
A: The TGI was 4.75 µM.

Q: What about the TGI [25] of the same compound?
A: Its TGI is 0.855 µM.

Q: And the TGI [26]?
A: Its TGI is 0.538 µM.

Q: And the TGI [27]?
A: The TGI was 0.254 µM.

Q: And the TGI [28]?
A: Its TGI is 0.892 µM.

Q: What about the TGI [29] of the same compound?
A: The TGI was 0.315 µM.

Q: What about the TGI [30] of the same compound?
A: The TGI was 1.46 µM.

Q: And the TGI [31]?
A: The TGI was 310 nM.

Q: What about the TGI [32] of the same compound?
A: The TGI was 3.63 µM.

Q: What about the TGI [33] of the same compound?
A: The TGI was 2.11 µM.

Q: What about the TGI [34] of the same compound?
A: Its TGI is 1.7 µM.

Q: And the TGI [35]?
A: Its TGI is 12.6 µM.

Q: What about the TGI [36] of the same compound?
A: The TGI was 3.1 µM.

Q: What about the TGI [37] of the same compound?
A: The TGI was 0.816 µM.

Q: What about the TGI [38] of the same compound?
A: The TGI was 300 nM.

Q: What about the TGI [39] of the same compound?
A: Its TGI is 2.13 µM.

Q: And the TGI [40]?
A: Its TGI is 12 µM.

Q: What about the TGI [41] of the same compound?
A: Its TGI is 0.415 µM.

Q: What about the TGI [42] of the same compound?
A: Its TGI is 3.71 µM.

Q: And the TGI [43]?
A: Its TGI is 594 nM.

Q: And the TGI [44]?
A: The TGI was 11.9 µM.

Q: What about the TGI [45] of the same compound?
A: Its TGI is 0.594 µM.

Q: What about the TGI [46] of the same compound?
A: Its TGI is 4.3 µM.

Q: And the TGI [47]?
A: The TGI was 0.719 µM.

Q: What about the TGI [48] of the same compound?
A: Its TGI is 5.77 µM.

Q: What about the TGI [49] of the same compound?
A: Its TGI is 3.45 µM.

Q: And the TGI [50]?
A: The TGI was 2.29 µM.

Q: What about the TGI [51] of the same compound?
A: The TGI was 0.804 µM.

Q: And the TGI [52]?
A: The TGI was 0.984 µM.

Q: What about the TGI [53] of the same compound?
A: Its TGI is 1.03 µM.

Q: Which results are given for `CC(=O)NC1C(OCc2ccccc2)OC(CO)C(O)C1OCC(=O)N1CCCC1C(=O)N[C@@H](CCC(=O)NCCNCCNc1c2ccccc2nc2cccc([N+](=O)[O-])c12)C(N)=O` (some centres undefined)?
A: TGI [1]: 9.17 µM; TGI [2]: 9.21 µM; TGI [3]: 9.83 µM; TGI [4]: 15.3 µM; TGI [5]: 18.9 µM; TGI [6]: 16.5 µM; TGI [54]: 6.22 µM; TGI [7]: 4.97 µM; TGI [8]: > 21.2 µM; TGI [9]: 26.6 µM; TGI [10]: 8.46 µM; TGI [11]: 5.26 µM; TGI [12]: 11.8 µM; TGI [13]: > 39.5 µM; TGI [14]: 11.7 µM; TGI [15]: 5.61 µM; TGI [16]: 23.2 µM; TGI [17]: 9.02 µM; TGI [18]: 14.5 µM; TGI [19]: > 100 µM; TGI [20]: 15.6 µM; TGI [21]: 20.1 µM; TGI [22]: 6.4 µM; TGI [23]: 7.35 µM; TGI [24]: 19.9 µM; TGI [25]: 9.03 µM; TGI [26]: 5.63 µM; TGI [27]: 6.17 µM; TGI [55]: > 100 µM; TGI [28]: 33.8 µM; TGI [29]: 10.6 µM; TGI [30]: 6.63 µM; TGI [31]: 3960 nM; TGI [32]: 33.5 µM; TGI [33]: 20.4 µM; TGI [34]: 14.1 µM; TGI [35]: 23.1 µM; TGI [36]: 15.4 µM; TGI [37]: 13.7 µM; TGI [38]: 3290 nM; TGI [56]: 6.58 µM; TGI [39]: 25.1 µM; TGI [40]: 28.6 µM; TGI [57]: 10.4 µM; TGI [41]: 10.8 µM; TGI [42]: 18.2 µM; TGI [43]: 3380 nM; TGI [44]: 83.3 µM; TGI [45]: 10.6 µM; TGI [46]: 26.1 µM; TGI [47]: 24.8 µM; TGI [58]: 24.5 µM; TGI [48]: 93.6 µM; TGI [49]: 21.4 µM; TGI [50]: 12.4 µM; TGI [51]: 15.6 µM; TGI [52]: 15.5 µM; TGI [53]: 14.8 µM

Q: Which results are given for `C[C@]12CC[C@@H]3c4cc(Br)c(O)c(Br)c4CC[C@H]3[C@@H]1CCC2=O`?
A: TGI [1]: 46.4 µM; TGI [2]: > 100 µM; TGI [3]: 36.2 µM; TGI [4]: 26.9 µM; TGI [5]: 57.7 µM; TGI [6]: 38.9 µM; TGI [54]: > 100 µM; TGI [7]: > 100 µM; TGI [8]: > 100 µM; TGI [9]: 74.8 µM; TGI [10]: 26.9 µM; TGI [11]: > 100 µM; TGI [12]: 26.1 µM; TGI [13]: > 100 µM; TGI [15]: > 100 µM; TGI [16]: 52.2 µM; TGI [17]: > 100 µM; TGI [18]: > 100 µM; TGI [19]: > 100 µM; TGI [20]: > 100 µM; TGI [21]: 71.9 µM; TGI [22]: > 100 µM; TGI [23]: > 100 µM; TGI [24]: 43.9 µM; TGI [25]: > 100 µM; TGI [26]: > 100 µM; TGI [27]: > 100 µM; TGI [55]: 80.6 µM; TGI [28]: 26 µM; TGI [29]: 26.7 µM; TGI [30]: 48.9 µM; TGI [32]: 36.9 µM; TGI [33]: 31.4 µM; TGI [34]: 41.9 µM; TGI [35]: 65.2 µM; TGI [36]: 39.5 µM; TGI [37]: > 100 µM; TGI [56]: 36.7 µM; TGI [39]: 54.3 µM; TGI [40]: 38.1 µM; TGI [57]: 39.3 µM; TGI [41]: 38.3 µM; TGI [42]: > 100 µM; TGI [44]: 95.7 µM; TGI [45]: 65.1 µM; TGI [47]: 33.3 µM; TGI [58]: > 100 µM; TGI [48]: > 100 µM; TGI [49]: 34.5 µM; TGI [50]: 36.5 µM; TGI [51]: 56.1 µM; TGI [52]: > 100 µM; TGI [53]: 24.2 µM
